Source: patent US20260363251A1 (priority 2022, published 2026)
Like-named read-outs stand apart in the source and are kept apart here. Numbered stars: 1 amine (or outer) side, 2 acyl side, 3 side chain; on linkers, the order of the positions; unused ones are H or OH. Bridge positions count the residues as written; N and C are the ends. Square brackets hold non-standard residues; d marks the D form. Peptide text beside a SMILES is read from it. * marks the point of attachment. Tridecanoyl(12-Me) = CC(C)CCCCCCCCCCC(=O)*; X1 = NC(=O)CC(O)C(N[*:1])C(=O)[*:2]; NMeF = CN[CH](Cc1ccccc1)C(=O)O; NMeN = CN[CH](CC(N)=O)C(=O)O; X2 = CCC(C)CCCCCCCCCCC(=O)*

Key:
[1] = system: Aphanomyces cochlioides; assay: Seed treatment, soilborne Aphanomyces cochlioides in sugar beet in the greenhouse (Example 4.3); assay type: in vivo, Aphanomyces cochlioides strain K-9164; conditions: Tachigaren WS070; damping off vs infected control
[2] = Solubility in water or DMSO
[3] = system: Fusarium culmorum; assay: Seed treatment, soilborne Fusarium culmorum in wheat under semi-field conditions (Example 4.1B); assay type: in vivo; conditions: Celest FS025, 5 g ai per 100 kg seeds; plant emergence vs infected control
[4] = system: Pyricularia oryzae; assay type: in vivo; conditions: 1 d preventive, 400 L/ha
[5] = system: Rhizoctonia solani; assay: Treatment of sheath blight on rice (Table 11); conditions: 1 d preventive, 400 L/ha
[6] = dmso, organic solvent or mixture

For Cc1cc(O)no1 [Hymexazol], the “activity (%)” value [1] was 74%.

For CCC(C)CCCCCCCCCCC(=O)NC1C(=O)NC(CC(=O)O)C(=O)NC(C(O)CC(N)=O)C(=O)NC(CO)C(=O)N(C)C(CC(N)=O)C(=O)N(C)C(Cc2ccccc2)C(=O)NC(CCC(N)=O)C(=O)NC(CCC(=O)O)C(=O)OC1C (stereo not drawn) [Formula II (b) Lipopeptide 1218] (X2-TD[X1]S[NMeN][NMeF]QE; ester 1-C; configuration not given here), the solubility [2, 6] was over 10000 µg/mL.

In the case of N#Cc1c[nH]cc1-c1cccc2c1OC(F)(F)O2 [Fludioxonil], the “activity (%)” value [3] is reported as 93%.

With CO/C=C(/C(=O)OC)c1ccccc1Oc1cc(Oc2ccccc2C#N)ncn1 [Azoxystrobin] the “disease symptom reduction (%) vs. Untreated” value ([4]; 3 g/ha) was 92%, the “disease symptom reduction (%) vs. Untreated” value ([4]; 9 g/ha) was 85% and the “disease symptom reduction (%) vs. Untreated” value ([4]; 28 g/ha) was 96%. For the same compound, the “disease symptom reduction (%) vs. Untreated” value ([4]; 83 g/ha) was 92%, the “disease symptom reduction (%) vs. Untreated” value ([5]; 3 g/ha) was 62% and the “disease symptom reduction (%) vs. Untreated” value ([5]; 9 g/ha) was 86%. The “disease symptom reduction (%) vs. Untreated” value ([5]; 28 g/ha) was 81% and the “disease symptom reduction (%) vs. Untreated” value ([5]; 83 g/ha) was 86%.

In the case of CC(=O)NC1C(OCC(OC2OC(CO)C(O)C(O)C2O)C2OC(OC3C(O)C(CO)OC(OC4(CO)OC(C(O)CO)C(O)C4OC4OC(CO)C(O)C(O)C4O)C3O)C(O)C(O)C2OC2OC(C(O)CO)C(O)C(O)C2OC2OCC(OC(N)=O)C(O)C2O)OC(CO)C(O)C1O (stereo not drawn) [compound I], the solubility [2, 6] is reported as over 9770 µg/mL.

For CCCC1COC(Cn2cncn2)(c2ccc(Cl)cc2Cl)O1 (stereo not drawn) [Propiconazole], the “disease symptom reduction (%) vs. Untreated” value ([4]; 5 g/ha) was 17%, the “disease symptom reduction (%) vs. Untreated” value ([4]; 14 g/ha) was 38% and the “disease symptom reduction (%) vs. Untreated” value ([4]; 42 g/ha) was 79%. The “disease symptom reduction (%) vs. Untreated” value ([4]; 125 g/ha) was 92%.

CC(C)CCCCCCCCCCC(=O)NC1C(=O)NC(CC(=O)O)C(=O)NC(C(O)CC(N)=O)C(=O)NC(CO)C(=O)N(C)C(CC(N)=O)C(=O)N(C)C(Cc2ccccc2)C(=O)NC(CCC(N)=O)C(=O)NC(CCC(=O)O)C(=O)OC1C (stereo not drawn) [Formula II (a) Lipopeptide 1204] ({Tridecanoyl(12-Me)}-TD[X1]S[NMeN][NMeF]QE; ester 1-C; configuration not given here) showed a solubility [2, 6] of over 10000 µg/mL and a solubility ([2]; water, pH 2.08, water) of 21.4 µg/mL.
